In patent US20200207734A1, “HETEROCYCLIC COMPOUND AND USE THEREOF” (Takeda Pharmaceutical Company Limited, priority 2017, published 2020):

These molecules were tested against T1, human orexin type 2 receptor (Homo sapiens, UniProt O43614) (assay: Measurement of orexin type 2 receptor agonist activity (calcium fluorescence, CHO cells expressing hOX2R)). Details: test compound 3 μM; CHO cells expressing human OX2 receptor; DMSO = 0%, orexin A (human) = 100%.
T1 construct: human orexin type 2 receptor cDNA was inserted into pcDNA3.1(+) plasmid vector (Invitrogen); expressed in transfected cells
T1 sequence (O43614 1-444): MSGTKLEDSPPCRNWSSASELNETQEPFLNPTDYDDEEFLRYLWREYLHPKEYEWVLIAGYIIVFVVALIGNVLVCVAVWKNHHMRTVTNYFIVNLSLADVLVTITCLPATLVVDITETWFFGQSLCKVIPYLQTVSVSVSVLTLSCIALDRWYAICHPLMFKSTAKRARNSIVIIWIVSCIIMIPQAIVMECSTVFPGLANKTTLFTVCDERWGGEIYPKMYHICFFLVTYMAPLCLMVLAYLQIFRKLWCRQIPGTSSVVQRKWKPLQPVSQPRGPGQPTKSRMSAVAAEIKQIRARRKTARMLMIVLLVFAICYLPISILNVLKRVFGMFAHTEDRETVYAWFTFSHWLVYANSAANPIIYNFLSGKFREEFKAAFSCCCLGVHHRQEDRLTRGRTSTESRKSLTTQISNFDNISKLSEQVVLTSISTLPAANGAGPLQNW
Format: cell-based
Method in brief: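 CHO-dhfr cells stably expressing hOX2R, loaded with Fluo-4 AM in HBSS/20 mM HEPES/0.1% BSA with probenecid, then given test compound. Calcium fluorescence was read for about 2 min 40 sec. Activity (%) was scaled between DMSO (0%) and 10 nM final human orexin A (100%).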

Compound	OX2R agonist activity (3 μM, %)
CS(=O)(=O)N[C@H]1CCN(C(=O)C2(O)CCC2)[C@H]1Cc1cccc(-c2cc(F)cc(F)c2)c1 [Example 344, N-((2S,3S)-2-((3′,5′-difluorobiphenyl-3-yl)methyl)-1-((1-hydroxycyclobutyl)carbonyl)pyrrolidin-3-yl)methanesulfonamide]	99%
CS(=O)(=O)N[C@H]1CCN(C(=O)N2CCC2)[C@H]1Cc1cccc(-c2cc(F)cc(F)c2)c1 [Example 345, N-((2S,3S)-1-(azetidin-1-ylcarbonyl)-2-((3′,5′-difluorobiphenyl-3-yl)methyl)pyrrolidin-3-yl)methanesulfonamide]	93%
CS(=O)(=O)N[C@H]1CCN(C(=O)C2(C#N)CCC2)[C@H]1Cc1cccc(-c2cccc(F)c2)c1 [Example 346, N-((2S,3S)-1-((1-cyanocyclobutyl)carbonyl)-2-((3′-fluorobiphenyl-3-yl)methyl)pyrrolidin-3-yl)methanesulfonamide]	107%
CS(=O)(=O)N[C@H]1CCN(C(=O)N2CC3(CC3)C2)[C@H]1Cc1cccc(-c2cccc(F)c2)c1 [Example 347, N-((2S,3S)-1-(5-azaspiro[2.3]hex-5-ylcarbonyl)-2-((3′-fluorobiphenyl-3-yl)methyl)pyrrolidin-3-yl)methanesulfonamide]	87%
CCS(=O)(=O)N[C@H]1CCN(C(=O)N2CCC2)[C@H]1Cc1csc(-c2cc(F)cc(F)c2)n1 [Example 348, N-((2S,3S)-1-(azetidin-1-ylcarbonyl)-2-((2-(3,5-difluorophenyl)-1,3-thiazol-4-yl)methyl)pyrrolidin-3-yl)ethanesulfonamide]	109%
CC(C)(C)C(=O)N1CC[C@H](NS(C)(=O)=O)[C@@H]1Cc1cccc(-c2cccc(F)c2)c1F [Example 349, N-((2S,3S)-2-((2,3′-difluorobiphenyl-3-yl)methyl)-1-(2,2-dimethylpropanoyl)pyrrolidin-3-yl)methanesulfonamide]	99%
CS(=O)(=O)N[C@H]1CCN(C(=O)C2CCC2)[C@H]1Cc1cccc(-c2cccc(F)c2)c1F [Example 350, N-((2S,3S)-1-(cyclobutylcarbonyl)-2-((2,3′-difluorobiphenyl-3-yl)methyl)pyrrolidin-3-yl)methanesulfonamide]	99%
CC1(C(=O)N2CC[C@H](NS(C)(=O)=O)[C@@H]2Cc2cccc(-c3cccc(F)c3)c2F)CC1 [Example 351, N-((2S,3S)-2-((2,3′-difluorobiphenyl-3-yl)methyl)-1-((1-methylcyclopropyl)carbonyl)pyrrolidin-3-yl)methanesulfonamide]	106%
CS(=O)(=O)N[C@H]1CCN(C(=O)N2CCC2)[C@H]1Cc1cccc(-c2cccc(F)c2)c1F [Example 352, N-((2S,3S)-1-(azetidin-1-ylcarbonyl)-2-((2,3′-difluorobiphenyl-3-yl)methyl)pyrrolidin-3-yl)methanesulfonamide]	102%
CN(C)C(=O)N1CC[C@H](NS(C)(=O)=O)[C@@H]1Cc1cccc(-c2cc(F)cc(F)c2)c1 [Example 366, (2S,3S)-2-((3′,5′-difluorobiphenyl-3-yl)methyl)-N,N-dimethyl-3-((methylsulfonyl)amino)pyrrolidine-1-carboxamide]	100%
CCS(=O)(=O)N[C@H]1CCN(C(=O)N(C)C)[C@H]1Cc1cccc(-c2cccc(F)c2)c1F [Example 373, (2S,3S)-2-((2,3′-difluorobiphenyl-3-yl)methyl)-3-((ethylsulfonyl)amino)-N,N-dimethylpyrrolidine-1-carboxamide]	96%
CC(C)(O)C(=O)N1CC[C@H](NS(C)(=O)=O)[C@@H]1Cc1cccc(-c2cccc(F)c2)c1F [Example 387, N-((2S,3S)-2-((2,3′-difluorobiphenyl-3-yl)methyl)-1-(2-hydroxy-2-methylpropanoyl)pyrrolidin-3-yl)methanesulfonamide]	106%
CCS(=O)(=O)N[C@H]1CCN(C(=O)C(C)(C)O)[C@H]1Cc1cccc(-c2cccc(F)c2)c1F [Example 389, N-((2S,3S)-2-((2,3′-difluorobiphenyl-3-yl)methyl)-1-(2-hydroxy-2-methylpropanoyl)pyrrolidin-3-yl)ethanesulfonamide]	102%
CC(C)(O)C(=O)N1CC[C@H](NS(C)(=O)=O)[C@@H]1Cc1cccc(-c2cc(F)cc(F)c2)c1F [Example 395, N-((2S,3S)-1-(2-hydroxy-2-methylpropanoyl)-2-((2,3′,5′-trifluorobiphenyl-3-yl)methyl)pyrrolidin-3-yl)methanesulfonamide]	104%
CCS(=O)(=O)N[C@H]1CCN(C(=O)N(C)C)[C@H]1Cc1cccc(-c2cc(F)cc(F)c2)c1F [Example 399, (2S,3S)-3-((ethylsulfonyl)amino)-N,N-dimethyl-2-((2,3′,5′-trifluorobiphenyl-3-yl)methyl)pyrrolidine-1-carboxamide]	107%
CC(C)C(=O)N1CC[C@H](NS(C)(=O)=O)[C@@H]1Cc1cccc(-c2cc(F)cc(F)c2)c1F [Example 402, N-((2S,3S)-1-isobutyryl-2-((2,3′,5′-trifluorobiphenyl-3-yl)methyl)pyrrolidin-3-yl)methanesulfonamide]	107%
CCS(=O)(=O)N[C@H]1CCN(C(=O)C(C)(C)O)[C@H]1Cc1cccc(-c2cc(F)cc(F)c2)c1 [Example 404, N-((2S,3S)-2-((3′,5′-difluorobiphenyl-3-yl)methyl)-1-(2-hydroxy-2-methylpropanoyl)pyrrolidin-3-yl)ethanesulfonamide]	100%
CC(C)(O)C(=O)N1CC[C@H](NS(=O)(=O)CF)[C@@H]1Cc1cccc(-c2cccc(F)c2)c1F [Example 417, N-((2S,3S)-2-((2,3′-difluorobiphenyl-3-yl)methyl)-1-(2-hydroxy-2-methylpropanoyl)pyrrolidin-3-yl)-1-fluoromethanesulfonamide]	110%
CC(C)(O)C(=O)N1CC[C@H](NS(=O)(=O)CF)[C@@H]1Cc1cccc(-c2cc(F)cc(F)c2)c1 [Example 421, N-((2S,3S)-2-((3′,5′-difluorobiphenyl-3-yl)methyl)-1-(2-hydroxy-2-methylpropanoyl)pyrrolidin-3-yl)-1-fluoromethanesulfonamide]	106%
CC(C)(O)C(=O)N1CC[C@H](NS(=O)(=O)CF)[C@@H]1Cc1cccc(-c2cc(F)cc(F)c2)c1F [Example 423, 1-fluoro-N-((2S,3S)-1-(2-hydroxy-2-methylpropanoyl)-2-((2,3′,5′-trifluorobiphenyl-3-yl)methyl)pyrrolidin-3-yl)methanesulfonamide]	109%
CC(C)(O)C(=O)N1CC[C@H](NS(=O)(=O)C(F)F)[C@@H]1Cc1cccc(-c2cc(F)cc(F)c2)c1F [Example 424, 1,1-difluoro-N-((2S,3S)-1-(2-hydroxy-2-methylpropanoyl)-2-((2,3′,5′-trifluorobiphenyl-3-yl)methyl)pyrrolidin-3-yl)methanesulfonamide]	101%
CC(C)(O)C(=O)N1CC[C@H](NS(C)(=O)=O)[C@@H]1Cc1cccc(-c2cc(F)cc(Cl)c2)c1F [Example 428, N-((2S,3S)-2-((3′-chloro-2,5′-difluorobiphenyl-3-yl)methyl)-1-(2-hydroxy-2-methylpropanoyl)pyrrolidin-3-yl)methanesulfonamide]	102%
CCS(=O)(=O)N[C@H]1CCN(C(=O)C(C)(C)O)[C@H]1Cc1cccc(-c2cccc(Cl)c2)c1F [Example 431, N-((2S,3S)-2-((3′-chloro-2-fluorobiphenyl-3-yl)methyl)-1-(2-hydroxy-2-methylpropanoyl)pyrrolidin-3-yl)ethanesulfonamide]	101%
CCS(=O)(=O)N[C@H]1CCN(C(=O)C(C)(C)O)[C@H]1Cc1cccc(-c2cc(F)cc(F)c2)c1F [Example 435, N-((2S,3S)-1-(2-hydroxy-2-methylpropanoyl)-2-((2,3′,5′-trifluorobiphenyl-3-yl)methyl)pyrrolidin-3-yl)ethanesulfonamide]	107%
CCS(=O)(=O)N[C@H]1CCN(C(=O)C(C)(C)O)[C@H]1Cc1cccc(-c2cc(F)cc(Cl)c2)c1F [Example 437, N-((2S,3S)-2-((3′-chloro-2,5′-difluorobiphenyl-3-yl)methyl)-1-(2-hydroxy-2-methylpropanoyl)pyrrolidin-3-yl)ethanesulfonamide]	99%
CC(C)(O)C(=O)N1CC[C@H](NS(=O)(=O)C2CC2)[C@@H]1Cc1cccc(-c2cc(F)cc(F)c2)c1F [Example 439, N-((2S,3S)-1-(2-hydroxy-2-methylpropanoyl)-2-((2,3′,5′-trifluorobiphenyl-3-yl)methyl)pyrrolidin-3-yl)cyclopropanesulfonamide]	98%
CS(=O)(=O)N[C@H]1CCN(C(=O)C2CCO2)[C@H]1Cc1cccc(-c2cc(F)cc(F)c2)c1F (stereo partly drawn) [Example 441, N-{(2S,3S)-1-(oxetane-2-carbonyl)-2-[(2,3′,5′-trifluoro[1,1′-biphenyl]-3-yl)methyl]pyrrolidin-3-yl}methanesulfonamide]	99%
